Data as given in ChEMBL document CHEMBL3817731, “Synthesis and investigation of novel benzimidazole derivatives as antifungal agents” (Bioorg Med Chem, 2016).
Converted amounts (≈) assume the structure as drawn.

tested on: Aspergillus nidulans; experiment: Antifungal activity against Aspergillus nidulans ATCC 38163 after 48 hrs by CLSI M38-A2 method; format: functional; conditions: ATCC 38163, 48 h

Row | SMILES | MIC [µg/mL]
1 | CCN1CCN(c2ccc3nc(-c4ccc5nc(-c6ccc(OC)cc6)[nH]c5c4)[nH]c3c2)CC1 | > 31.2
2 | C[C@@H](c1ncncc1F)[C@](O)(Cn1cncn1)c1ccc(F)cc1F [VORICONAZOLE] | 0.03 (≈ 0.0859 µM)
3 | CN1CCN(c2ccc3nc(-c4ccc5nc(-c6ccc(OCCO)cc6)[nH]c5c4)[nH]c3c2)CC1 | 15.6 (≈ 33.3 µM)
4 | CCCN1CCN(c2ccc3nc(-c4ccc5nc(-c6ccc(O)cc6)[nH]c5c4)[nH]c3c2)CC1 | 7.8 (≈ 17.2 µM)
5 | CCCN1CCN(c2ccc3nc(-c4ccc5nc(-c6ccc(OC)cc6)[nH]c5c4)[nH]c3c2)CC1 | > 31.2

tested on: Candida albicans; experiment: Antifungal activity against Candida albicans ATCC MYA-90819 after 48 hrs by CLSI M27-A3 method; format: functional; conditions: ATCC MYA-90819, 48 h

Row | SMILES | MIC [µg/mL]
6 | CCN1CCN(c2ccc3nc(-c4ccc5nc(-c6ccc(OC)cc6)[nH]c5c4)[nH]c3c2)CC1 | > 31.2
7 | C[C@@H](c1ncncc1F)[C@](O)(Cn1cncn1)c1ccc(F)cc1F [VORICONAZOLE] | 1.95 (≈ 5.58 µM)
8 | CN1CCN(c2ccc3nc(-c4ccc5nc(-c6ccc(OCCO)cc6)[nH]c5c4)[nH]c3c2)CC1 | > 31.2
9 | CCCN1CCN(c2ccc3nc(-c4ccc5nc(-c6ccc(O)cc6)[nH]c5c4)[nH]c3c2)CC1 | 31.2 (≈ 68.9 µM)
10 | CCCN1CCN(c2ccc3nc(-c4ccc5nc(-c6ccc(OC)cc6)[nH]c5c4)[nH]c3c2)CC1 | > 31.2

tested on: Nakaseomyces glabratus; experiment: Antifungal activity against Candida glabrata ATCC 2001 after 48 hrs by CLSI M27-A3 method; format: functional; conditions: CBS 138, 48 h

Row | SMILES | MIC [µg/mL]
11 | CCN1CCN(c2ccc3nc(-c4ccc5nc(-c6ccc(OC)cc6)[nH]c5c4)[nH]c3c2)CC1 | 7.8 (≈ 17.2 µM)
12 | CN1CCN(c2ccc3nc(-c4ccc5nc(-c6ccc(OCCO)cc6)[nH]c5c4)[nH]c3c2)CC1 | 31.2 (≈ 66.6 µM)
13 | CCCN1CCN(c2ccc3nc(-c4ccc5nc(-c6ccc(O)cc6)[nH]c5c4)[nH]c3c2)CC1 | 7.8 (≈ 17.2 µM)
14 | CCCN1CCN(c2ccc3nc(-c4ccc5nc(-c6ccc(OC)cc6)[nH]c5c4)[nH]c3c2)CC1 | > 31.2

tested on: Candida albicans; experiment: Antifungal activity against Candida albicans ATCC MYA-1237 after 48 hrs by CLSI M27-A3 method; format: functional; conditions: ATCC MYA-1237, 48 h

Row | SMILES | MIC [µg/mL]
15 | CCN1CCN(c2ccc3nc(-c4ccc5nc(-c6ccc(OC)cc6)[nH]c5c4)[nH]c3c2)CC1 | > 31.2
16 | C[C@@H](c1ncncc1F)[C@](O)(Cn1cncn1)c1ccc(F)cc1F [VORICONAZOLE] | 7.8 (≈ 22.3 µM)
17 | CN1CCN(c2ccc3nc(-c4ccc5nc(-c6ccc(OCCO)cc6)[nH]c5c4)[nH]c3c2)CC1 | > 31.2
18 | CCCN1CCN(c2ccc3nc(-c4ccc5nc(-c6ccc(O)cc6)[nH]c5c4)[nH]c3c2)CC1 | 31.2 (≈ 68.9 µM)
19 | CCCN1CCN(c2ccc3nc(-c4ccc5nc(-c6ccc(OC)cc6)[nH]c5c4)[nH]c3c2)CC1 | > 31.2

tested on: Pichia kudriavzevii; experiment: Antifungal activity against Candida krusei ATCC 6258 after 48 hrs by CLSI M27-A3 method; format: functional; conditions: ATCC 6258, 48 h

Row | SMILES | MIC [µg/mL]
20 | CCN1CCN(c2ccc3nc(-c4ccc5nc(-c6ccc(OC)cc6)[nH]c5c4)[nH]c3c2)CC1 | 31.2 (≈ 68.9 µM)
21 | C[C@@H](c1ncncc1F)[C@](O)(Cn1cncn1)c1ccc(F)cc1F [VORICONAZOLE] | 0.12 (≈ 0.344 µM)
22 | CN1CCN(c2ccc3nc(-c4ccc5nc(-c6ccc(OCCO)cc6)[nH]c5c4)[nH]c3c2)CC1 | 7.8 (≈ 16.6 µM)
23 | CCCN1CCN(c2ccc3nc(-c4ccc5nc(-c6ccc(O)cc6)[nH]c5c4)[nH]c3c2)CC1 | 31.2 (≈ 68.9 µM)
24 | CCCN1CCN(c2ccc3nc(-c4ccc5nc(-c6ccc(OC)cc6)[nH]c5c4)[nH]c3c2)CC1 | 7.8 (≈ 16.7 µM)

tested on: Candida albicans; experiment: Antifungal activity against Candida albicans ATCC 10231 after 48 hrs by CLSI M27-A3 method; format: functional; conditions: ATCC 10231, 48 h

Row | SMILES | MIC [µg/mL]
25 | CCN1CCN(c2ccc3nc(-c4ccc5nc(-c6ccc(OC)cc6)[nH]c5c4)[nH]c3c2)CC1 | > 31.2
26 | CN1CCN(c2ccc3nc(-c4ccc5nc(-c6ccc(OCCO)cc6)[nH]c5c4)[nH]c3c2)CC1 | > 31.2
27 | CCCN1CCN(c2ccc3nc(-c4ccc5nc(-c6ccc(O)cc6)[nH]c5c4)[nH]c3c2)CC1 | 31.2 (≈ 68.9 µM)
28 | CCCN1CCN(c2ccc3nc(-c4ccc5nc(-c6ccc(OC)cc6)[nH]c5c4)[nH]c3c2)CC1 | > 31.2

tested on: Candida parapsilosis; experiment: Antifungal activity against Candida parapsilosis ATCC 22019 after 48 hrs by CLSI M27-A3 method; format: functional; conditions: Lodderomyces parapsilosis, ATCC 22019, 48 h

Row | SMILES | MIC [µg/mL]
29 | CCN1CCN(c2ccc3nc(-c4ccc5nc(-c6ccc(OC)cc6)[nH]c5c4)[nH]c3c2)CC1 | 7.8 (≈ 17.2 µM)
30 | C[C@@H](c1ncncc1F)[C@](O)(Cn1cncn1)c1ccc(F)cc1F [VORICONAZOLE] | < 0.03
31 | CN1CCN(c2ccc3nc(-c4ccc5nc(-c6ccc(OCCO)cc6)[nH]c5c4)[nH]c3c2)CC1 | 15.6 (≈ 33.3 µM)
32 | CCCN1CCN(c2ccc3nc(-c4ccc5nc(-c6ccc(O)cc6)[nH]c5c4)[nH]c3c2)CC1 | 7.8 (≈ 17.2 µM)
33 | CCCN1CCN(c2ccc3nc(-c4ccc5nc(-c6ccc(OC)cc6)[nH]c5c4)[nH]c3c2)CC1 | 31.2 (≈ 66.9 µM)

tested on: Candida albicans; experiment: Antifungal activity against Candida albicans ATCC MYA-2876 after 48 hrs by CLSI M27-A3 method; format: functional; conditions: ATCC MYA-2876, 48 h

Row | SMILES | MIC [µg/mL]
34 | CCN1CCN(c2ccc3nc(-c4ccc5nc(-c6ccc(OC)cc6)[nH]c5c4)[nH]c3c2)CC1 | > 31.2
35 | C[C@@H](c1ncncc1F)[C@](O)(Cn1cncn1)c1ccc(F)cc1F [VORICONAZOLE] | 1.95 (≈ 5.58 µM)
36 | CN1CCN(c2ccc3nc(-c4ccc5nc(-c6ccc(OCCO)cc6)[nH]c5c4)[nH]c3c2)CC1 | 31.2 (≈ 66.6 µM)
37 | CCCN1CCN(c2ccc3nc(-c4ccc5nc(-c6ccc(O)cc6)[nH]c5c4)[nH]c3c2)CC1 | 31.2 (≈ 68.9 µM)
38 | CCCN1CCN(c2ccc3nc(-c4ccc5nc(-c6ccc(OC)cc6)[nH]c5c4)[nH]c3c2)CC1 | > 31.2

tested on: Aspergillus flavus; experiment: Antifungal activity against Aspergillus flavus ATCC MYA-3631 after 48 hrs by CLSI M38-A2 method; format: functional; conditions: ATCC MYA-3631, 48 h

Row | SMILES | MIC [µg/mL]
39 | CCN1CCN(c2ccc3nc(-c4ccc5nc(-c6ccc(OC)cc6)[nH]c5c4)[nH]c3c2)CC1 | > 31.2
40 | CN1CCN(c2ccc3nc(-c4ccc5nc(-c6ccc(OCCO)cc6)[nH]c5c4)[nH]c3c2)CC1 | 31.2 (≈ 66.6 µM)
41 | CCCN1CCN(c2ccc3nc(-c4ccc5nc(-c6ccc(O)cc6)[nH]c5c4)[nH]c3c2)CC1 | > 31.2
42 | CCCN1CCN(c2ccc3nc(-c4ccc5nc(-c6ccc(OC)cc6)[nH]c5c4)[nH]c3c2)CC1 | > 31.2

tested on: Candida albicans; experiment: Antifungal activity against Candida albicans ATCC MYA-2310 after 48 hrs by CLSI M27-A3 method; format: functional; conditions: ATCC MYA-2310, 48 h

Row | SMILES | MIC [µg/mL]
43 | CCN1CCN(c2ccc3nc(-c4ccc5nc(-c6ccc(OC)cc6)[nH]c5c4)[nH]c3c2)CC1 | > 31.2
44 | C[C@@H](c1ncncc1F)[C@](O)(Cn1cncn1)c1ccc(F)cc1F [VORICONAZOLE] | 0.975 (≈ 2.79 µM)
45 | CN1CCN(c2ccc3nc(-c4ccc5nc(-c6ccc(OCCO)cc6)[nH]c5c4)[nH]c3c2)CC1 | 31.2 (≈ 66.6 µM)
46 | CCCN1CCN(c2ccc3nc(-c4ccc5nc(-c6ccc(O)cc6)[nH]c5c4)[nH]c3c2)CC1 | 31.2 (≈ 68.9 µM)
47 | CCCN1CCN(c2ccc3nc(-c4ccc5nc(-c6ccc(OC)cc6)[nH]c5c4)[nH]c3c2)CC1 | > 31.2

tested on: Candida albicans; experiment: Antifungal activity against Candida albicans ATCC MYA-1003 after 48 hrs by CLSI M27-A3 method; format: functional; conditions: ATCC MYA-1003, 48 h

Row | SMILES | MIC [µg/mL]
48 | CCN1CCN(c2ccc3nc(-c4ccc5nc(-c6ccc(OC)cc6)[nH]c5c4)[nH]c3c2)CC1 | > 31.2
49 | C[C@@H](c1ncncc1F)[C@](O)(Cn1cncn1)c1ccc(F)cc1F [VORICONAZOLE] | 1.95 (≈ 5.58 µM)
50 | CN1CCN(c2ccc3nc(-c4ccc5nc(-c6ccc(OCCO)cc6)[nH]c5c4)[nH]c3c2)CC1 | 31.2 (≈ 66.6 µM)
51 | CCCN1CCN(c2ccc3nc(-c4ccc5nc(-c6ccc(O)cc6)[nH]c5c4)[nH]c3c2)CC1 | 31.2 (≈ 68.9 µM)
52 | CCCN1CCN(c2ccc3nc(-c4ccc5nc(-c6ccc(OC)cc6)[nH]c5c4)[nH]c3c2)CC1 | > 31.2

tested on: Candida albicans; experiment: Antifungal activity against Candida albicans ATCC 64124 after 48 hrs by CLSI M27-A3 method; format: functional; conditions: ATCC 64124, 48 h

Row | SMILES | MIC [µg/mL]
53 | CCN1CCN(c2ccc3nc(-c4ccc5nc(-c6ccc(OC)cc6)[nH]c5c4)[nH]c3c2)CC1 | > 31.2
54 | C[C@@H](c1ncncc1F)[C@](O)(Cn1cncn1)c1ccc(F)cc1F [VORICONAZOLE] | 3.9 (≈ 11.2 µM)
55 | CN1CCN(c2ccc3nc(-c4ccc5nc(-c6ccc(OCCO)cc6)[nH]c5c4)[nH]c3c2)CC1 | > 31.2
56 | CCCN1CCN(c2ccc3nc(-c4ccc5nc(-c6ccc(O)cc6)[nH]c5c4)[nH]c3c2)CC1 | 31.2 (≈ 68.9 µM)
57 | CCCN1CCN(c2ccc3nc(-c4ccc5nc(-c6ccc(OC)cc6)[nH]c5c4)[nH]c3c2)CC1 | > 31.2

tested on: Aspergillus terreus; experiment: Antifungal activity against Aspergillus terreus ATCC MYA3633 after 48 hrs by CLSI M38-A2 method; format: functional; conditions: ATCC MYA3633, 48 h

Row | SMILES | MIC [µg/mL]
58 | CCN1CCN(c2ccc3nc(-c4ccc5nc(-c6ccc(OC)cc6)[nH]c5c4)[nH]c3c2)CC1 | > 31.2
59 | C[C@@H](c1ncncc1F)[C@](O)(Cn1cncn1)c1ccc(F)cc1F [VORICONAZOLE] | 0.12 (≈ 0.344 µM)
60 | CN1CCN(c2ccc3nc(-c4ccc5nc(-c6ccc(OCCO)cc6)[nH]c5c4)[nH]c3c2)CC1 | 15.6 (≈ 33.3 µM)
61 | CCCN1CCN(c2ccc3nc(-c4ccc5nc(-c6ccc(O)cc6)[nH]c5c4)[nH]c3c2)CC1 | 15.6 (≈ 34.5 µM)
62 | CCCN1CCN(c2ccc3nc(-c4ccc5nc(-c6ccc(OC)cc6)[nH]c5c4)[nH]c3c2)CC1 | > 31.2
